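Results reflect a 48-hour exposure of cells in 96-well plates to compound at five concentrations. GI50: concentration for 50% inhibition of growth. The concentration for full growth arrest is given as TGI.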

What all share (assay): NCI tumour cell line growth inhibition, 48 h
Assay [1] deals with TK-10 renal.
Assay [2] has as its system HCT-116 colon.
The test system of assay [3] is KM12 colon.
Assay [4] relates to HL-60(TB) leukemia.
For assay [5], the system named is K-562 leukemia.
Assay [6] deals with SK-MEL-5 melanoma.
In assay [7] the test system is MALME-3M melanoma.
For assay [8], the system named is OVCAR-4 ovarian.
Assay [9] deals with HS 578T breast.

Take `CN(C)CCNC(=O)c1cccc2ccc(-c3ccc(-c4ccccc4)cc3)nc12`: the TGI in assay [1] turned out to be 9.43 µM; in assay [2], 3.4 µM; in assay [3], 5.6 µM; in assay [4], 4.23 µM; in assay [5], 5.64 µM; in assay [6], 3.1 µM. Besides, the TGI in [7] amounted to 3.61 µM; in assay [8], 6.74 µM.

With `CC1NC(=O)C2=C1C(N)=NC(=O)C2` (stereo unspecified), the TGI in assay [1], in [2], in assay [3], in [5], in assay [6] and in [7] was more than 100 µM each time. In assay [8], this compound returned a TGI of more than 100 µM.

Turning to `COc1ccccc1NS(=O)(=O)c1ccc2oc(SC(C)C)nc2c1`, the GI50 is 18.5 µM in assay [1]; 8.35 µM in assay [2]; 18.5 µM in [3]; 6.09 µM in [4]; 3.73 µM in assay [5]; 3.99 µM in assay [6]. In addition, the GI50 is 12.9 µM in assay [7], 33.6 µM in assay [9] and 8.67 µM in assay [8]. Moreover, the TGI in assay [1] is 53.8 µM; in assay [2] it was more than 100 µM; in [3] it was 49 µM; in assay [4], 29.1 µM; in [5] it was more than 100 µM; in assay [6] it was 17.4 µM. The figures for the TGI in [7], in [9] and in assay [8] were 37.5 µM, more than 100 µM and 77.6 µM, respectively.

Regarding `N#Cc1c(N)nc(NCc2ccccc2)c(C#N)c1-c1ccc(Cl)cc1Cl`, the GI50 in assay [1] is more than 84.3 µM; in [2] it was more than 100 µM; in [3] it was more than 84.5 µM; in [5], more than 100 µM; in [6], more than 100 µM; in [7] it was more than 63.1 µM. For the same compound, the GI50 is 85.7 µM in assay [9] and 24.7 µM in assay [8]. In addition, the TGI in assay [1], in assay [2], in assay [3], in assay [4], in [5] and in assay [6] was more than 100 µM in each case. For the same compound, the TGI is more than 100 µM in assay [7], more than 100 µM in assay [9] and 99.3 µM in assay [8].

As for `O=C(C/C(CCC(=O)N(Cc1ccccc1)Cc1ccccc1)=N/Nc1ccc([N+](=O)[O-])cc1[N+](=O)[O-])c1ccccc1`, the TGI in assay [1], in assay [2], in assay [3], in [4], in assay [5] and in assay [7] was more than 100 µM each time. Besides, in [8], the TGI is more than 100 µM.

Regarding `CCN(CC)CCn1[nH]c2c3ccc(=O)cc3sc3c(NCCN)ccc1c32`, the TGI in assay [1] amounted to 11.3 µM; in assay [2] it was 2.19 µM; in [3], 2.75 µM; in [5], 1.42 µM; in [6] it was 2.91 µM; in assay [7] it was 2.73 µM. The same compound returned a TGI in assay [8] of 2.28 µM.

For `CC(C)(C)OC(=O)c1cccnc1/C=N/O`, the TGI in [1], in assay [2], in assay [3], in assay [4], in [5] and in assay [6] was more than 100 µM in each case. For the same compound, the TGI in assay [7] and in [8] was more than 100 µM in each case.

With `COC1C2c3cc4c(cc3CC(C#N)(c3ccccc32)N1C(=O)c1ccccc1)OCO4` (stereo unspecified), the TGI in assay [1], in [2], in assay [3], in assay [4], in assay [5] and in [6] was more than 100 µM each time. The TGI in assay [7] was more than 100 µM.

Regarding `C/C=C/COC(=O)CO[N+](=O)[O-]`, the TGI in assay [1], in assay [2], in assay [3], in assay [4], in assay [5] and in assay [7] was more than 100 µM throughout. For the same compound, in assay [8], the TGI was more than 100 µM.

On to `O=c1[nH]c(=O)n(C2OC(CO)C(O)C2O)cc1OCC(F)(F)F` (stereo unspecified), for which the TGI in assay [1], in assay [2], in [3], in assay [4], in assay [5] and in assay [6] was more than 100 µM in each case. For the same compound, the TGI in [7] and in [8] was more than 100 µM each time.

For `Cc1nc2sccn2c1C(=O)NC(=O)Nc1ccc(Cl)cc1`, the TGI in assay [1], in assay [2], in [3], in assay [4], in [5] and in [6] was more than 100 µM each time. Besides, the TGI in [7] and in assay [8] was more than 100 µM each time.

Turning to `CCOC(=O)C(CNc1ccc(O)cc1)NC(=O)c1ccccc1` (stereo unspecified), the TGI in [1] is more than 100 µM; in assay [2], more than 100 µM; in [3], more than 100 µM; in [4], 73.3 µM; in assay [5] it was more than 100 µM; in [6], more than 100 µM. Further, the TGI in assay [7] and in assay [8] was more than 100 µM each time.

In the case of `CCOC(=O)C1([Se]c2ccccc2)CCCC1=O` (stereo unspecified), the TGI is more than 100 µM in assay [1]; 30.9 µM in [2]; more than 100 µM in [3]; 23.5 µM in [4]; more than 100 µM in [5]; 58 µM in assay [6]. For the same compound, the TGI in [7] was more than 100 µM; in [8] it was 36.8 µM.

As to `COc1cc2c(cc1C1=NC(C)(C)CO1)OCO2`, the TGI in [1], in assay [2], in assay [3], in assay [4], in assay [5] and in [6] was more than 100 µM in each case. Moreover, the TGI in assay [7] and in assay [8] was more than 100 µM throughout.

The record behind these values is PubChem BioAssay (NCI).
